Test results from paper PMC9673926, “Nucleotide binding as an allosteric regulatory mechanism for Akkermansia muciniphila β-N-acetylhexosaminidase Am2136” (Gut Microbes, 2022).
Numbering of substitutions follows the chain as printed.

Legend:
Assay in all cases: Nucleotide binding affinity by intrinsic fluorescence, mutant
Set-up in all cases: The coding region (residue Q20-L756) of Am2136 without signal peptide was based on UniProt; 6XHis (N); made in house; host or cells: E. coli BL21 (DE3)
Am2136 P595A+H597A = molecular target: T1, Am2136 P595A+H597A (Akkermansia muciniphila, UniProt B2UPR7, H597A/P595A)
T1 sequence (B2UPR7 20-756 P595A/H597A): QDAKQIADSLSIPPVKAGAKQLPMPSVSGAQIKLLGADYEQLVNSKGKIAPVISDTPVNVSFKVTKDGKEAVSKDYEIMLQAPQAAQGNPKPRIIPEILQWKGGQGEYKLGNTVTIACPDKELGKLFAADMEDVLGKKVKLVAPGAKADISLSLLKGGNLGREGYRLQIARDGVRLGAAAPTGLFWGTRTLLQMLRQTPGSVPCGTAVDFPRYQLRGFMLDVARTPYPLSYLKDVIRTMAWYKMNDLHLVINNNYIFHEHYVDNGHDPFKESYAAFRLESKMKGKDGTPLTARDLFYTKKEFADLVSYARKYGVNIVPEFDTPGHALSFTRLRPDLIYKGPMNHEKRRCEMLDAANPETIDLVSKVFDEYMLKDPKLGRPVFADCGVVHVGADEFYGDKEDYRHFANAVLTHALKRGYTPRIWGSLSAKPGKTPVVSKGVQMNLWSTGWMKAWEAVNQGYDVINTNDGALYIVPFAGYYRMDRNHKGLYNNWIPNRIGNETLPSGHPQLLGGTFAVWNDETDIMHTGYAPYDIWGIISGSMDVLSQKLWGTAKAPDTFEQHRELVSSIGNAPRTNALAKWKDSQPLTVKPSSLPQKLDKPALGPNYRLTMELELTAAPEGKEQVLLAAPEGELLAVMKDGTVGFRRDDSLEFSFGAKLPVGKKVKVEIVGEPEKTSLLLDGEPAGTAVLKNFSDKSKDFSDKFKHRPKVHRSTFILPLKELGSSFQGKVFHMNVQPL
Protocol: (§1) The nucleotide binding ability was determined on Fluorescence Spectrometer Duetta (HORIBA) by measuring the change of peak intensity. The fluorescence was excited at 286 nm and emitted at 336 nm. And the measurement was processed under 400 V voltage with 2.5 nm excitation slit and 5 nm emission slit. The 120 μL reaction mixture contains 0–550 μM nucleotide, 5 μM proteins, 25 mM Tris pH 8.0 and 150 mM NaCl. The sample was incubated at 4°C for 5 min before testing.

Am2136 Y327F+Y331F = molecular target: T2, Am2136 Y327F+Y331F (Akkermansia muciniphila, UniProt B2UPR7, Y327F/Y331F)
T2 sequence (B2UPR7 20-756 Y327F/Y331F): T1 sequence (B2UPR7 20-756 P595A/H597A) with Y308F, Y312F, A576P, A578H
Protocol: as §1

Am2136 E649A = molecular target: T3, Am2136 E649A (Akkermansia muciniphila, UniProt B2UPR7, E649A)
T3 sequence (B2UPR7 20-756 E649A): T1 sequence (B2UPR7 20-756 P595A/H597A) with A576P, A578H, E630A
Protocol: as §1

Compound: Nc1nc2c(ncn2[C@@H]2O[C@H](COP(=O)(O)OP(=O)(O)O)[C@@H](O)[C@H]2O)c(=O)[nH]1 [GDP]
- Kd (Am2136 P595A+H597A): 140 ± 4.26 µM
- Kd (Am2136 Y327F+Y331F): 175 ± 13.7 µM
- Kd (Am2136 E649A): 236 µM
